In patent US5403850A, “Derivatives of P-substituted phenyl ester of pivalic acid” (Ono Pharmaceutical Co., Ltd., priority 1988, dated 1995):
pIC50: −log10 of the molar value. Structures can show the parent of a compound that is named as a salt.

Molecular target: T1, elastase from human neutrophil (Homo sapiens, UniProt P08246)
T1 construct: elastase from human neutrophil; from tissue; host or cells: human neutrophil
T1 sequence (P08246 30-247 limits assumed): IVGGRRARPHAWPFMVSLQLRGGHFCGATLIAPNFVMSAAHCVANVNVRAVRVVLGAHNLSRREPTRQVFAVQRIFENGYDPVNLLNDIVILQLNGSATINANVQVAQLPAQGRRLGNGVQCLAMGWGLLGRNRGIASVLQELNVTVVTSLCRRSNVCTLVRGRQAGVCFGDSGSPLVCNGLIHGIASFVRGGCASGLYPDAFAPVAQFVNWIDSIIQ
Assay: Inhibitory effect on elastase (spectrophotometric, Suc-Ala-Pro-Ala-pNA substrate)
Type: biochemical
Conditions: 1 mM Suc-Ala-Pro-Ala-pNA, tris-hydrochloric acid pH 8.0, 37° C. for 30 minutes, absorbance 405 nm
Description: The reaction mixture consisted of 1 mM Suc-Ala-Pro-Ala-pNA (dissolving in N-methylpyrrolidone to the concentration of 100 mM, and then adding 1/100 amount of the solution to the reaction mixture.), 0.1 M buffer solution of tris-hydrochloric acid (pH 8.0), 0.2 M sodium chloride aqueous solution, the sample solution of various concentrations and enzyme solution in a final volume of 1.0 ml was incubated at 37° C. for 30 minutes.
Inhibition percentage of the test compounds was calculated by the following equation: [formula]

| Compound | pIC50 |
| --- | --- |
| CC(C)(C)C(=O)Oc1ccc(S(N)(=O)=O)cc1 [1(2), p-sulfamoylphenyl ester of pivalic acid] | 6.11 |
| CC(C)(C)C(=O)Oc1ccc(S(=O)(=O)n2ccnc2)cc1 [1(12), p-[(1-imidazolyl)sulfonyl]phenyl ester of pivalic acid] | 7.30 |
| CC(C)(C)C(=O)Oc1ccc(S(=O)(=O)Nc2ccccn2)cc1 [1(14), p-[N-(α-pyridyl)sulfamoyl]phen-yl ester of pivalic acid] | 6.72 |
| CC(=O)Oc1ccc(N(S(=O)(=O)c2ccc(OC(=O)C(C)(C)C)cc2)S(=O)(=O)c2ccc(OC(=O)C(C)(C)C)cc2)cc1 [1(15)] | 7.32 |
| CC(C)(C)NS(=O)(=O)c1ccc(OC(=O)C(C)(C)C)cc1 [2(5), p-(N-tert-butylsulfamoyl)phenyl ester of pivalic acid] | 7.28 |
| CCN(CC)C(=O)COC(=O)c1ccccc1NS(=O)(=O)c1ccc(OC(=O)C(C)(C)C)c(C)c1 [2(38), 2-methyl-4-[N-(o-(N,N-diethyl-carbamoylmethoxycarbonyl)phehyl)sulfamoyl]phenyl ester of pivalic acid] | 7.14 |
| Cc1cc(S(=O)(=O)Nc2cccc3c2OC(C(=O)O)CO3)ccc1OC(=O)C(C)(C)C (stereo not shown) [2(49), 2-methyl-4-[N-(1,4-dioxa-2-carboxy-8-yl-naphthalene)sulfamoyl]phenyl ester of pivalic] | 6.82 |
| Cc1cc(S(=O)(=O)Nc2ccccc2C(=O)N2CCC[C@H]2C(=O)O)ccc1OC(=O)C(C)(C)C [2(62), 2-methyl-4-[N-(2-prolylcarbonylphenyl)sulfamoyl] phenyl ester of pivalic acid] | 6.16 |
| Cc1cc(S(=O)(=O)Nc2ccccc2C(=O)N[C@@H](Cc2ccccc2)C(=O)O)ccc1OC(=O)C(C)(C)C [2(67), N-[o-(3-methyl-4-pivaloyloxybenzene)sulfonylaminobenzoyl]-L-phenylalanine] | 6.39 |
| CN(c1ccc(Br)cc1)S(=O)(=O)c1ccc(OC(=O)C(C)(C)C)cc1 [Example 1, p-[N-(p-bromophenyl)-N-methylsulfamoyl] phenyl ester of pivalic] | 7.51 |

Now from value to compound:

| pIC50 | Compound |
| --- | --- |
| 6.70 | CSCCC(NC(=O)c1ccccc1NS(=O)(=O)c1ccc(OC(=O)C(C)(C)C)c(C)c1)C(=O)O (racemic) [2(68), N-[o-(3-methyl-4-pivaloyloxybenzene)sulfonylaminobenzoyl]-dl-methionine] |
| 7.38 | CC(C)(C)C(=O)Oc1ccc(S(=O)(=O)NC2CCCCC2)cc1 [1(3), p-(N-cyclohexylsulfamoyl)phenyl ester of pivalic acid] |
| 7.52 | CC(C)(C)C(=O)Oc1ccc(S(=O)(=O)Nc2ccc(Cl)cc2)cc1 [1(8), p-[N-(4-chlorophenyl)sulfamoyl] phenyl ester of pivalic acid] |
| 6.19 | Cc1cc(S(=O)(=O)Nc2ccccc2OCCCC(=O)O)ccc1OC(=O)C(C)(C)C [2(51), 2-methyl-4-[N-(o-carboxypropoxy-phenyl)sulfamoyl]phenyl ester of pivalic acid] |
| 6.28 | Cc1cc(S(=O)(=O)Nc2ccccc2C(=O)N[C@@H](CCCCN)C(=O)O)ccc1OC(=O)C(C)(C)C [2(69), N-[o-(3-methyl-4-pivaloyloxybenzene)sulfonylaminobenzoyl]-L-lysine. hydrochloride] |
| 7.68 | CSc1ccc(NS(=O)(=O)c2ccc(OC(=O)C(C)(C)C)cc2)c(C(=O)NCC(=O)O)c1 [2(80), N-[5-methylthio-2-(p-pivaloyoxy-benzene)sulfonylaminobenzoyl] glycine] |
| 7.62 | CCCSc1ccc(NS(=O)(=O)c2ccc(OC(=O)C(C)(C)C)cc2)c(C(=O)NCC(=O)O)c1 [2(87), N-[2-(p-pivaloyloxybenzene)sulfonylamino-5-propylthiobenzoyl] glycine] |
| 7.14 | CC(C)(C)C(=O)Oc1ccc(S(=O)(=O)NCCc2ccccc2)cc1 [4(5), p-(N-phenethylsulfamoyl)phenyl ester of pivalic acid] |
| 7.64 | CC(C)(C)C(=O)Oc1ccc(S(=O)(=O)Nc2ccccc2C(=O)O)cc1 [5(3), p-[N-(o-carboxyphenyl)sulfamoyl] phenyl ester of pivalic acid] |
